IC50 and melting point data for 21 compounds are collected here from US7425557B2, “Inhibitors of glycogen synthase kinase 3” (Novartis Vaccines and Diagnostics, Inc., priority 1998, dated 2008).

What is called IC50 is the point on the concentration scale where inhibition reaches its midpoint. Usually melting point stands for the temperature of the solid-liquid transition.

The target of one data set is human GSK3β (Homo sapiens, UniProt P49841). Kind of data set: Screening for GSK3 inhibitory activity using a cell-free assay. The class given is biochemical. As to conditions: read-out: IC50 with respect to GSK3. An outline of the steps: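 Compounds in DMSO were tested against human GSK3β over a three-hour kinase reaction. Radiolabeled phosphate transferred to the peptide was captured on streptavidin plates after EDTA/ATP stop and quantified by scintillation counting. Signal was plotted versus compound concentration.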
Chain of human GSK3β (P49841 whole entry): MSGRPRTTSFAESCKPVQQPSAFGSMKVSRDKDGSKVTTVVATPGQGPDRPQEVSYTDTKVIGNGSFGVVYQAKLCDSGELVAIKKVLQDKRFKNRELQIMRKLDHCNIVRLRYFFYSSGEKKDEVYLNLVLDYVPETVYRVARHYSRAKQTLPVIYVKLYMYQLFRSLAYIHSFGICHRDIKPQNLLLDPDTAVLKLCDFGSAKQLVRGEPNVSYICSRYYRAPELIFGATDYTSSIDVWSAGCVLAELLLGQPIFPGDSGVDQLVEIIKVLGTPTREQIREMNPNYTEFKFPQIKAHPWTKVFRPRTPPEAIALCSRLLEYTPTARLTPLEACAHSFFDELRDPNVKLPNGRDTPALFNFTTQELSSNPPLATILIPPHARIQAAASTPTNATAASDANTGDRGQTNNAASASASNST

SMILES strings stand for the structures.

In the case of `O=[N+]([O-])c1ccc(NCCNc2nccc(-c3ccc(N4CCOCC4)cc3)n2)nc1` [[4-(4-morpholin-4-ylphenyl)-pyrimidin-2-yl]{2-[(5-nitro(2-pyridyl))amino]ethyl}amine], the melting point was 223 to 225 °C (dec.). For the same compound, the half-inhibitory concentration (IC50) on human GSK3β is at most 1 µM. On to `Cc1cn(-c2ccc(NCCNc3ccc([N+](=O)[O-])c(N)n3)nc2-c2ccc(Cl)cc2Cl)cn1` [{2-[(6-amino-5-nitro(2-pyridyl))amino]ethyl}[6-(2,4-dichlorophenyl)-5-(4-methylimidazolyl)(2-pyridyl)]amine], for which the concentration for half-maximal inhibition (IC50) on human GSK3β is at most 1 µM.

As to `Nc1nc(NCCNc2ccc(-n3ccnc3)c(-c3ccc(Cl)cc3Cl)n2)ccc1[N+](=O)[O-]` [{2-[(6-amino-5-nitro(2-pyridyl))amino]ethyl}[6-(2,4-dichlorophenyl)-5-imidazolyl(2-pyridyl)]amine], on human GSK3β, the IC50 is at most 1 µM. The same measure, in the same setting: the figure for `Nc1nc(NCCNc2ccc([N+](=O)[O-])c(-c3ccc(Cl)cc3Cl)n2)ccc1[N+](=O)[O-]` [{2-[(6-amino-5-nitro(2-pyridyl))amino]ethyl}[6-(2,4-dichlorophenyl)-5-nitro(2-pyridyl)]amine] is at most 1 µM.

With `Nc1nc(NCCNc2ncc(-n3nnnc3C(F)(F)F)c(-c3ccc(Cl)cc3Cl)n2)ccc1[N+](=O)[O-]` [{2-[(6-amino-5-nitro(2-pyridyl))amino]ethyl}{4-(2,4-dichlorophenyl)-5-[5-(trifluoromethyl)(1,2,3,4-tetraazolyl)]pyrimidin-2-yl}amine], the half-inhibitory concentration (IC50) at human GSK3β is at most 1 µM. Consider `N#Cc1cnc(NCCNc2nccc(-c3ccc(C(=O)NCc4cccc(Br)c4)cc3)n2)nc1N` [{4-[2-({2-[(4-amino-5-cyanopyrimidin-2-yl)amino]ethyl}amino)pyrimidin-4-yl]phenyl}-N-[(3-bromophenyl)methyl]carboxamide], for which the half-inhibitory concentration (IC50) at human GSK3β was at most 1 µM. On the same count and under the same terms, the result for `NS(=O)(=O)c1ccc(CNC(=O)c2ccc(-c3ccnc(NCCNc4ccc([N+](=O)[O-])cn4)n3)cc2)cc1` [{4-[2-({2-[(5-nitro(2-pyridyl))-amino]ethyl}amino)pyrimidin-4-yl]phenyl}-N-[(4-sulfamoylphenyl)methyl]carboxamide] reads at most 10 µM; that for `O=C(NCCc1ccccc1)c1ccc(-c2ccnc(NCCNc3ccc([N+](=O)[O-])cn3)n2)cc1` [{4-[2-({2-[(5-nitro(2-pyridyl))amino]ethyl}amino)-pyrimidin-4-yl]phenyl}-N-(2-phenylethyl)carboxamide], at most 10 µM; that for `O=C(NCc1cccs1)c1ccc(-c2ccnc(NCCNc3ccc([N+](=O)[O-])cn3)n2)cc1` [{4-[2-({2-[(5-nitro(2-pyridyl))amino]ethyl}amino)-pyrimidin-4-yl]phenyl}-N-(2-thienylmethyl)carboxamide], at most 10 µM.

As to `O=C(NC1CC1c1ccccc1)c1ccc(-c2ccnc(NCCNc3ccc([N+](=O)[O-])cn3)n2)cc1` (stereo not shown) [{4-[2-({2-[(5-nitro(2-pyridyl))amino]ethyl}amino)pyrimidin-4-yl]phenyl}-N-(2-phenylcyclopropyl)-carboxamide], the half-maximal inhibitory concentration (IC50) at human GSK3β is at most 10 µM. Turning to `O=C(NCc1cccnc1)c1ccc(-c2ccnc(NCCNc3ccc([N+](=O)[O-])cn3)n2)cc1` [{4-[2-({2-[(5-nitro(2-pyridyl))amino]ethyl}amino)pyrimidin-4-yl]phenyl}-N-(3-pyridylmethyl)carboxamide], the IC50 on human GSK3β was at most 10 µM.

In the case of `O=C(NCC1CCNCC1)c1ccc(-c2ccnc(NCCNc3ccc([N+](=O)[O-])cn3)n2)cc1` [{4-[2-({2-[(5-nitro(2-pyridyl))amino]ethyl}amino)pyrimidin-4-yl]phenyl}-N-(4-piperidylmethyl)carboxamide], the IC50 at human GSK3β was at most 10 µM. For `O=C(NCC1CCCO1)c1ccc(-c2ccnc(NCCNc3ccc([N+](=O)[O-])cn3)n2)cc1` (stereo not shown) [{4-[2-({2-[(5-nitro(2-pyridyl))amino]ethyl}amino)pyrimidin-4-yl]phenyl}-N-(oxolan-2-ylmethyl)carboxamide], the IC50 at human GSK3β is at most 10 µM. As to `O=C(NCc1cccc([N+](=O)[O-])c1)c1ccc(-c2ccnc(NCCNc3ccc([N+](=O)[O-])cn3)n2)cc1` [{4-[2-({2-[(5-nitro(2-pyridyl))amino]ethyl}amino)pyrimidin-4-yl]phenyl}-N-[(3-nitrophenyl)-methyl]carboxamide], the IC50 at human GSK3β is at most 10 µM. Still for that read-out and setting: the result for `O=C(NCc1ccccc1)c1ccc(-c2ccnc(NCCNc3ccc([N+](=O)[O-])cn3)n2)cc1` [{4-[2-({2-[(5-nitro(2-pyridyl))amino]ethyl}amino)pyrimidin-4-yl]phenyl}-N-benzylcarboxamide] reads at most 10 µM. The same measure, in the same setting: the figure for `O=C(NCc1cccc(C(F)(F)F)c1)c1ccc(-c2ccnc(NCCNc3ccc([N+](=O)[O-])cn3)n2)cc1` [{4-[2-({2-[(5-nitro(2-pyridyl))amino]ethyl}amino)pyrimidin-4-yl]phenyl}-N-{[3-(trifluoromethyl)phenyl]methyl}carboxamide] is at most 10 µM; for `Nc1nc(NCCNc2nccc(-c3ccc(C(=O)NCc4cccc(Br)c4)cc3)n2)ccc1[N+](=O)[O-]` [{4-[2-({2-[(6-amino-5-nitro(2-pyridyl))amino]ethyl}amino)pyrimidin-4-yl]phenyl}-N-[(3-bromophenyl)methyl]-carboxamide] it is at most 10 µM; for `Nc1nc(NCCNc2nccc(-c3ccc(C(=O)NCc4ccccc4)cc3)n2)ccc1[N+](=O)[O-]` [{4-[2-({2-[(6-amino-5-nitro(2-pyridyl))amino]ethyl}amino)pyrimidin-4-yl]phenyl}-N-benzylcarboxamide] it is at most 10 µM.

For `O=[N+]([O-])c1ccc(NCCNc2nccc(-c3ccc(-c4nc(Cl)c(Cl)[nH]4)cc3)n2)nc1` [{4-[4-(4,5-dichloroimidazol-2-yl)phenyl]-pyrimidin-2-yl}{2-[(5-nitro(2-pyridyl))amino]ethyl}amine], at human GSK3β, the IC50 is at most 10 µM. Take `O=[N+]([O-])c1ccc(NCCNc2ncc(-c3ncc[nH]3)c(-c3ccc(C(F)(F)F)cc3)n2)nc1` [{5-imidazol-2-yl-4-[4-(trifluoromethyl)phenyl]pyrimidin-2-yl}{2-[(5-nitro(2-pyridyl))amino]ethyl}amine]: the concentration for half-maximal inhibition (IC50) at human GSK3β was at most 1 µM. Same read-out and setting: the figure for `COCCNc1nc(NCCNc2ccc([N+](=O)[O-])cn2)ccc1[N+](=O)[O-]` [{6-[(2-methoxyethyl)amino]-5-nitro(2-pyridyl)}{2-[(5-nitro(2-pyridyl))amino]ethyl}amine] is at most 10 µM.
